Marks after values point to notes of the source that are not given here.
Tests used:
[1] = system: IL-6 secretion in 3T3-L1 adipocytes; experiment: IL-6 secretion in t10-CLA-stimulated 3T3-L1 adipocytes; type: cell-based, murine
Procedure: Treatment—Test materials were added four hours prior to the addition of t10-CLA at a concentration of 50 μM. Following overnight incubation, the supernatant media were sampled for determination of IL-6 and adiponectin. Interleukin-6 assay—The IL-6 secreted into the medium in response to […] stimulation was quantified using the Quantikine® Mouse IL-6 Immunoassay kit with no modifications (R&D Systems, Minneapolis, Minn.). […] All supernatant media samples were diluted 1:30 for quantification. Statistical Calculations and Interpretation—Test materials and were assayed in duplicate, while solvent controls were replicated eight times. IL-6 and adiponectin secretion were represented relative to the IL-6 and adiponectin secretion of the t10-CLA only controls as the IL-6 and adiponectin index and differences among the means were analyzed by the student's t-test assuming a five percent probability of a type I error (Excel; Microsoft, Redmond, Wash.).

[2] = system: prostate specific antigen (PSA) secretion from LNCaP prostate cells; experiment: Prostate specific antigen secretion from LNCaP prostate cells; type: cell-based, human; conditions: for Effect on PSA Secretion over 24 Hours: LNCaP cells; for PSA secretion: 24 hours
Source text: Chemicals—PSA was quantified from the cell culture supernatant fluid using the Quantikine Human KLK3/PSA Immunoassay kit (R&D Systems, Inc., Minnaepolis, Minn.). All other materials used in this example were purchased from Sigma (St. Louis, Mo.) or otherwise noted and were of the highest purity commercially available. The N. sativa samples used in this study were those commercial-scale extracts described in Example 1. Cell culture and treatment—The LNCaP prostate cell line, which produces PSA, was used to study the effects of commercial-scale N. sativa scale extracts of Example 1 and pure TQ on the secretion of PSA. LNCaP cells were purchased from the American Type Culture Collection (ATCC, Manassas, Va.) and sub-cultured according to instructions supplied by ATCC. Prior to experiments, cells were cultured in DMEM containing 10% FBS-HI added 50 units penicillin/ml and 50 μg streptomycin/ml, and maintained in log phase prior to experimental setup. Cells were grown in a 5% CO2 humidified incubator at 37° C. Components of medium included: (1) 10% FBS/DMEM (Fetal Bovine Serum/Dulbecco's Modified Eagle's Medium) containing 4.5 g glucose/L; (2) 50 U/ml penicillin; and (3) 50 μg/ml streptomycin. Growth medium was made by adding 50 ml of heat inactivated FBS and 5 ml of penicillin/streptomycin to 500 ml DMEM. This medium was stored at 4° C. Before use, the medium was warmed to 37° C. in a water bath. LNCaP cells were seeded at an initial density of 6×10^4 cells/cm^2 in 96-well plates. For two days, the cells were allowed grow to reach confluence. On day three post seeding, cells were treated with TQ, NS8, NS9, NS10, Spent#1, and NSSpent#2 at the concentrations listed in FIGS. 5, 6 and 7. Twenty-four hours later, the supernatant media were sampled and assayed for PSA.

[3] = system: Caco-2 monolayers; experiment: LPS/H2O2-mediated loss of transepithelial electrical resistance in Caco-2 monolayers; type: cell-based, human
Source text: Caco-2 Cells—The protocol for growing and differentiation the human Caco-2 colon andenocarcinoma cells was a modification of Protocol 3 as described by Yamashita et al. [Yamashita, S., Konishi, K., Yamazaki, Y., Taki, Y., Sakane, T., Sezaki, H., and Furuyama, Y. (2002) New and better protocols for a short-term Caco-2 cell culture system, J Pharm Sci 91, 669-679]. Caco-2 Human Colon Adenocarcinoma cells were obtained from ATCC (Rockville, Md.; catalog #HTB-37) and maintained in a growth media: DMEM (Dulbecco's Modified Eagles Medium 1×) containing L-glutamine, glucose; Cellgro catalog #35-010CV with the following additions: (1) Penicillin (5,000 IU/mL)/Streptomycin (5,000 μg/mL) Cellgro catalog #30-001C1, (2) 10% FBS—Fetal Bovine Serum, Characterized; Hyclone catalog #SH30071.3, and (3) 1% NEAA—Non Essential Amino Acids; Cellgro catalog #25-025-CI; cells were cultured at 37 C in a humidified air-5% CO2 atmosphere in T175 flasks.
Differentiation of Caco-2 cells to intestinal epithelial cells—BIOCOAT^R HTS Caco-2 Assay System kits (Becton Dickinson, N.J.; catalog #354801) consisting of 24-well fibrillar collagen coated inserts and feeder trays were used in all experiments and plated as follows. Media was removed from the T175 flasks and cells were washed with 10 mLs PBS (phosphate buffered saline 1× without Ca^++, without Mg^++; Cellgro #25-053-CI). […]

For `CC1=CC(=O)C(C(C)C)=CC1=O` [Thymoquinone (Sigma), thymoquinone], the “effect on IL-6 secretion in t10-CLA-stimulated adipocytes” value ([1]; concentrations of Table 8) was “inhibited IL-6 secretion”, the “IL-6 Index” value ([1]; relative to t10-CLA only control (100), 50 μM t10-CLA, overnight, each material at its tabulated concentration) was 75* and the “Effect on PSA Secretion over 24 Hours” value [2] was “Decreased PSA at 5 and 10 μg/mL, dramatic increase”. The “Effect on PSA Secretion over 24 Hours” value ([2]; listed as TQ) was “decreased PSA only at the two lowest doses tested”, the PSA secretion ([2]; highest dose (100 μg/mL per Table 4)) was 207% and the PSA secretion ([2]; second highest dose (50 μg/mL per Table 4)) was 166%. For the same molecule, the “Relative Loss of TEER” value ([3]; 10 uM H2O2 + 50 μg/mL LPS, three hours, positive control set to 100, each material at its tabulated concentration (TQ 5.0, NS8 0.11, NS9 0.99, NS10 0.012, NSSpent#2 0.0005 μg TQ equivalents/mL; Spent#1 5 μg/mL)) was 111 and the “effect on LPS/H2O2-mediated loss of TEER” value ([3]; concentrations of Table 6) was “no effect”.

— patent publication US8535740B2, “Compositions from Nigella sativa” (priority 2002, dated 2013)
